This note sets out measurements from patent publication US7763602B2, “Pyrrole derivatives as antimycobacterial compounds” (priority 2002, dated 2010).

In brackets after ≈: the same amount, converted by molar mass. A value given as a limit tells only on which side of the number the result lay.

In the first experiment the test system is M. tuberculosis clinical isolates, resistant. The experiment is described as follows: microbe, parasite or virus in culture. In kind it is cell-based, Mycobacterium tuberculosis. Conditions: Mycobacterium tuberculosis, read-out: MIC (μg/ml) M. tuberculosis Resistant (n = 26).
As to `COc1ccccc1N1CCN(Cc2cc(-c3ccc(Cl)cc3)n(-c3ccc(Cl)cc3)c2C)CC1` [Compound No. 2, 1-{[1,5-bis(4-chlorophenyl)-2-methylpyrrol-3-yl]methyl}-4-(2-methoxyphenyl) piperazine], the MIC is 0.25 to 1 µg/mL (≈ 0.494 to 1.97 µM).
On the same count and under the same terms, the figure for `Cc1c(CN2CCN(c3ncccn3)CC2)cc(-c2ccc(Cl)cc2)n1-c1ccc(Cl)cc1` [compound 5, 1-{[1,5-bis(4-chlorophenyl)-2-methylpyrrol-3-yl]methyl}-4-(2-pyrimidyl) piperazine] is 1 to 2 µg/mL (≈ 2.09 to 4.18 µM).

The experiment is the same for the next values; noted with them: Mycobacterium tuberculosis, read-out: MIC (μg/ml) against Clinical isolates Resistant.
As for `Cc1c(CN2CCN(c3ccc(F)cc3)CC2)cc(-c2ccc(Cl)cc2)n1-c1ccc(Cl)cc1` [Compound No. 1, 1-{[1,5-bis(4-chlorophenyl)-2-methylpyrrol-3-yl]methyl}-4-(4-fluorophenyl) piperazine], the MIC was 2 to 4 µg/mL (≈ 4.04 to 8.09 µM).
On the same count and under the same terms, the figure for `COc1ccccc1N1CCN(Cc2cc(-c3ccc(Cl)cc3)n(-c3ccc(Cl)cc3)c2C)CC1` [Compound No. 2, 1-{[1,5-bis(4-chlorophenyl)-2-methylpyrrol-3-yl]methyl}-4-(2-methoxyphenyl) piperazine] is 0.25 to 1 µg/mL (≈ 0.494 to 1.97 µM); for `CO[C@H]1/C=C/O[C@@]2(C)Oc3c(C)c(O)c4c(O)c(c(/C=N/N5CCN(C)CC5)c(O)c4c3C2=O)NC(=O)/C(C)=C\C=C\[C@H](C)[C@H](O)[C@@H](C)[C@@H](O)[C@@H](C)[C@H](OC(C)=O)[C@@H]1C` [Rifampicin, reference compound] it is 4 to 16 µg/mL (≈ 4.86 to 19.4 µM); for `Cc1c(CN2CCN(c3ccccn3)CC2)cc(-c2ccc(Cl)cc2)n1-c1ccc(Cl)cc1` [compound 4, 1-{[1,5-bis(4-chlorophenyl)-2-methylpyrrol-3-yl]methyl}-4-(2-pyridyl) piperazine] it is 0.5 to 4 µg/mL (≈ 1.05 to 8.38 µM).
Still for that read-out and setting: the figure for `Cc1c(CN2CCN(c3ncccn3)CC2)cc(-c2ccc(Cl)cc2)n1-c1ccc(Cl)cc1` [compound 5, 1-{[1,5-bis(4-chlorophenyl)-2-methylpyrrol-3-yl]methyl}-4-(2-pyrimidyl) piperazine] is 0.5 to 2 µg/mL (≈ 1.05 to 4.18 µM).
Still for that read-out and setting: the figure for `Cc1ccc(Cl)cc1N1CCN(Cc2cc(-c3ccc(Cl)cc3)n(-c3ccc(Cl)cc3)c2C)CC1` [compound 10, 1-{[1,5-bis(4-chlorophenyl)-2-methylpyrrol-3-yl]methyl}-4-(5-chloro-2-methylphenyl) piperazine] is 1 to 4 µg/mL (≈ 1.91 to 7.62 µM).

The experiment is the same for the next values; noted with them: Table I; agar dilution.
Turning to `Cc1c(CN2CCN(Cc3ccc4c(c3)OCO4)CC2)cc(-c2ccc(Cl)cc2)n1-c1ccc(Cl)cc1` [Compound No. 8, 5-[(4-{[1,5-bis(4-chlorophenyl)-2-methylpyrrol-3-yl]methyl}piperazinyl)methyl]-2H-benzo[d]1,3-dioxolane], the “MIC (μg/ml) against Clinical isolates Resistant” value (from here on “MIC (μg/ml)”) lay in the range of 1.0 to 4.0 µg/mL.
The same measure, in the same setting: the figure for `Cc1c(CN2CCN(c3cccc(C(F)(F)F)c3)CC2)cc(-c2ccccc2)n1NC(=O)c1ccncc1` [Compound No. 12, N-(3-{[4-(3-trifluoromethylphenyl)piperazinyl]methyl}-2-methyl-5-phenylpyrrolyl)-4-pyridylcarboxamide] is 0.5 to 1.0 µg/mL.
On the same count and under the same terms, the figure for `Cc1cc(CN2CCN(c3cccc(C(F)(F)F)c3)CC2)c(-c2ccccc2)n1NC(=O)c1ccncc1` [Compound No. 23, N-(3-{[4-(3-trifluoromethylphenyl)piperazinyl]methyl}-5-methyl-2-phenylpyrrolyl)-4-pyridylcarboxamide] is 0.25 to 1.0 µg/mL.
Still for that read-out and setting: the figure for `Cc1c(CN2CCN(C(=O)c3ccco3)CC2)cc(-c2ccc(Cl)cc2)n1-c1ccc(Cl)cc1` [compound 7, 4-{[1,5-bis(4-chlorophenyl)-2-methylpyrrol-3-yl]methyl}piperazinyl-2-furyl-ketone] is 2.0 to 4.0 µg/mL.
Take `Cc1c(CN2CCN(c3ccc(F)cc3)CC2)cc(-c2ccccc2)n1NC(=O)c1ccncc1` [compound 11, N-(3-{[4-(4-fluorophenyl)piperazinyl]methyl}-2-methyl-5-phenylpyrrolyl)-4-pyridylcarboxamide]: the “MIC (μg/ml)” value lay within 0.5 to 2.0 µg/mL.
`COc1ccccc1N1CCN(Cc2cc(-c3ccccc3)n(NC(=O)c3ccncc3)c2C)CC1` [compound 13, N-(3-{[4-(2-methoxyphenyl)piperazinyl]methyl}-2-methyl-5-phenylpyrrolyl)-4-pyridylcarboxamide]: the “MIC (μg/ml)” value fell in the range of 1.0 to 2.0 µg/mL.
Same read-out and setting: the figure for `Cc1c(CN2CCN(c3ccccn3)CC2)cc(-c2ccccc2)n1NC(=O)c1ccncc1` [compound 14, N-(3-{[4-(2-pyridyl)piperazinyl]methyl}-2-methyl-5-phenylpyrrolyl)-4-pyridylcarboxamide] is 4.0 to 8.0 µg/mL; for `Cc1c(CN2CCN(Cc3ccccc3)CC2)cc(-c2ccccc2)n1NC(=O)c1ccncc1` [compound 15, N-(2-methyl-5-phenyl-3-{[4-benzylpiperazinyl]methyl}pyrrolyl)-4-pyridylcarboxamide] it is 4.0 to 8.0 µg/mL; for `Cc1c(CN2CCN(C)CC2)cc(-c2ccccc2)n1NC(=O)c1ccncc1` [compound 16, N-{2-methyl-3-[(4-methylpiperazinyl)methyl]-5-phenylpyrrolyl}-4-pyridylcarboxamide] it is 4.0 to 16.0 µg/mL.
As for `Cc1c(CN2CCN(Cc3ccc4c(c3)OCO4)CC2)cc(-c2ccccc2)n1NC(=O)c1ccncc1` [compound 17, N-(3-{[4-(2H-benzo[d]1,3-dioxolan-5-ylmethyl)piperazinyl]methyl}-2-methyl-5-phenylpyrrolyl)-4-pyridylcarboxamide], the “MIC (μg/ml)” value is 4.0 to 8.0 µg/mL.
`Cc1c(CN2CCCC2)cc(-c2ccccc2)n1NC(=O)c1ccncc1` [compound 19, N-[2-methyl-5-phenyl-3-(pyrrolidinylmethyl)pyrrolyl]-4-pyridylcarboxamide]: the “MIC (μg/ml)” value was above 16.0 µg/mL.
With `Cc1c(CN2CCSCC2)cc(-c2ccccc2)n1NC(=O)c1ccncc1` [compound 21, N-[2-methyl-5-phenyl-3-(1,4-thiazaperhydroin-4-ylmethyl)pyrrolyl]-4-pyridyl carboxamide], the “MIC (μg/ml)” value fell in the range of 1.0 to 4.0 µg/mL.
With `Cc1c(CN2CCN(c3ccc(F)cc3)CC2)cc(-c2ccccc2)n1NC(=O)c1cnccn1` [compound 25, N-(3-{[4-(4-fluorophenyl)piperazinyl]methyl}-2-methyl-5-phenylpyrrolyl)pyrazin-2-ylcarboxamide], the “MIC (μg/ml)” value was 4.0 µg/mL (≈ 8.5 µM).
For the molecule `COc1ccccc1N1CCN(Cc2cc(-c3ccccc3)n(NC(=O)c3cnccn3)c2C)CC1` [compound 26, N-(3-{[4-(2-methoxyphenyl)piperazinyl]methyl}-2-methyl-5-phenylpyrrolyl) pyrazin-2-ylcarboxamide], the “MIC (μg/ml)” value was 4.0 to 16.0 µg/mL.
Still for that read-out and setting: the figure for `Cc1c(CN2CCN(c3cccc(C(F)(F)F)c3)CC2)cc(-c2ccccc2)n1NC(=O)c1cnccn1` [compound 27, N-(3-{[4-(3-trifluoromethylphenyl)piperazinyl]methyl}-2-methyl-5-phenylpyrrolyl)pyrazin-2-ylcarboxamide] is 8.0 µg/mL (≈ 15.4 µM).
Still for that read-out and setting: the figure for `Cc1c(CN2CCN(c3ccccn3)CC2)cc(-c2ccccc2)n1NC(=O)c1cnccn1` [compound 28, N-(3-{[4-(2-pyridyl)piperazinyl]methyl}-2-methyl-5-phenylpyrrolyl)pyrazin-2-ylcarboxamide] is 4.0 to 16.0 µg/mL.
For the molecule `Cc1c(CN2CCN(Cc3ccc4c(c3)OCO4)CC2)cc(-c2ccccc2)n1NC(=O)c1cnccn1` [compound 29, N-(3-{[4-(2H-benzo[d]1,3-dioxolen-5-ylmethyl)piperazinyl]methyl}-2-methyl-5-phenylpyrrolyl)pyrazin-2-ylcarboxamide], the “MIC (μg/ml)” value is above 16.0 µg/mL.
Still for that read-out and setting: the figure for `Cc1c(CN2CCN(C(c3ccccc3)c3ccccc3)CC2)cc(-c2ccccc2)n1NC(=O)c1cnccn1` [compound 30, N-(3-{[4-(diphenylmethyl)piperazinyl]methyl}-2-methyl-5-phenylpyrrolyl)-pyrazin-2-ylcarboxamide] is 4.0 to 16.0 µg/mL; for `COc1ccccc1N1CCN(Cc2cc(C)n(NC(=O)c3cnccn3)c2-c2ccccc2)CC1` [compound 32, N-(3-{[4-(2-methoxyphenyl)piperazinyl]methyl}-5-methyl-2-phenylpyrrolyl) pyrazin-2-ylcarboxamide] it is above 16.0 µg/mL; for `Cc1cc(CN2CCN(c3cccc(C(F)(F)F)c3)CC2)c(-c2ccccc2)n1NC(=O)c1cnccn1` [compound 33, N-(3-{[4-(3-trifluoromethylphenyl)piperazinyl]methyl}-5-methyl-2-phenylpyrrolyl)pyrazin-2-ylcarboxamide] it is 4.0 to 8.0 µg/mL.
The same measure, in the same setting: the figure for `Cc1cc(CN2CCN(c3ccccn3)CC2)c(-c2ccccc2)n1NC(=O)c1cnccn1` [compound 34, N-(3-{[4-(2-pyridyl)piperazinyl]methyl}-5-methyl-2-phenylpyrrolyl)pyrazin-2-ylcarboxamide] is above 16.0 µg/mL; for `Cc1cc(CN2CCN(Cc3ccc4c(c3)OCO4)CC2)c(-c2ccccc2)n1NC(=O)c1cnccn1` [compound 35, N-(3-{[4-(2H-benzo[3,4-d]1,3-dioxolan-5-ylmethyl)piperazinyl]methyl}-5-methyl-2-phenylpyrrolyl)pyrazin-2-ylcarboxamide] it is above 16.0 µg/mL.
On the same count and under the same terms, the figure for `Cc1cc(CN2CCN(C(c3ccccc3)c3ccccc3)CC2)c(-c2ccccc2)n1NC(=O)c1cnccn1` [compound 36, N-(3-{[4-(diphenylmethyl)piperazinyl]methyl}-5-methyl-2-phenylpyrrolyl) pyrazin-2-ylcarboxamide] is 1.0 to 4.0 µg/mL; for `COc1ccccc1N1CCN(Cc2cc(-c3ccc(Cl)cc3)n(NC(=O)c3cnccn3)c2C)CC1` [compound 38, N-(5-(4-chlorophenyl)-3-{[4-(2-methoxyphenyl)piperazinyl]methyl}-2-methylpyrrolyl)pyrazin-2-ylcarboxamide] it is above 16.0 µg/mL.
As to `Cc1cc(CN2CCN(c3ccc(F)cc3)CC2)c(-c2ccc(Cl)cc2)n1NC(=O)c1cnccn1` [compound 41, N-(2-(4-chlorophenyl)-3-{[4-(4-fluorophenyl)piperazinyl]methyl}-5-methylpyrrolyl)pyrazin-2-ylcarboxamide], the “MIC (μg/ml)” value is above 16.0 µg/mL.
